In brackets after ≈: the same amount, converted by molar mass. Several values for one entry are separate records, joined by “and”; a condition that tells them apart may be missing. Identical values can stand only once. Like-named read-outs stand apart in the source and are kept apart here. Marks after values point to notes of the source that are not given here.
Experiments:
[1] = test system: CYP2C9 1*/2*
[2] = cited from earlier work
[3] = Equilibrium solubility, Uniprep method, 24 h at 37 °C; assay type: physicochemical
Experimental: The solubility of FLU was investigated in various aqueous and biorelevant dissolution media using the Uniprep system (Whatman, Piscataway, NJ, USA). All aqueous buffers were prepared according to the European Pharmacopoeia, while the biorelevant media were prepared according to Markopoulos et al. and Fuchs et al.. An excess amount of API was added to 3 mL of dissolution medium and the samples were incubated for 24 h at 37 °C on an orbital mixer. The samples were then filtered through the 0.45 μm polytetrafluoroethylene (PTFE) filter integrated in the Uniprep system. The filtrate was immediately diluted with mobile phase and analyzed by high-performance liquid chromatography (HPLC) (see Section 2.5). All measurements were performed at least in triplicate (n ≥ 3) and the final pH was recorded. […] Whatman, Piscataway, NJ, USA) and subsequently, after appropriate dilution with mobile phase, analyzed by HPLC-UV (Hitachi Chromaster; Hitachi Ltd., Tokyo, Japan or Spectra System HPLC, ThermoQuest Inc., San Jose, CA, USA). A BDS Hypersil C18, 5 μm, 150 × 4.6 mm (Thermo Scientific, Waltham, MA, United States) analytical column combined with a pre-column (BDS Hypersil C-18, 3μm, 10 × 4mm) was used. The mobile phase consisted of water adjusted to pH = 3.0 with trifluoroacetic acid (TFA) and acetonitrile (49.5:0.5:50% v/v). The detection wavelength was set at 247 nm, the flow rate at 1.0 mL/min, and the injection volume at 20 μL. Using this method, the retention time was approximately 6.8 min.

[4] = design: method as in earlier work; details: 55 (55, 60); cited from earlier work
[5] = test system: UGT2B7; details: Recombinant UGT; cited from earlier work
[6] = 1st value, ref Lee et al. (2003) as printed
[7] = 2nd value, ref Lee et al. (2015) as printed
[8] = po sol s.d. 40 mg, CYP2C9 1*/1*
[9] = po sol s.d. 40 mg, CYP2C9 1*/3*
[10] = po tab (Froben) s.d. 100 mg, ref 4
[11] = po tab (Froben) s.d. 100 mg, ref 38
[12] = po tab s.d. 50 mg, CYP2C9 1*/1*
[13] = po tab s.d. 50 mg, CYP2C9 1*/1*, median
[14] = po tab s.d. 50 mg, CYP2C9 1*/2*
[15] = po tab s.d. 50 mg, CYP2C9 1*/3*
[16] = po tab s.d. 50 mg, CYP2C9 1*/3*, median
[17] = po tab s.d. 50 mg, CYP2C9 3*/3*, individual values (n = 2)

What does the source list for `CC(C(=O)O)c1ccc(-c2ccccc2)c(F)c1` (centres unmarked) [flurbiprofen]?
CYP2C9 1*/2*-Vmax [1]: 11.53 pmol/min/pmol CYP; observed decrease in CYP2C9 1*/3* clearance [2, 6]: about 37%; observed increase in AUC, CYP2C9 1*/3* [2, 6]: 1.62 fold; observed decrease in CYP2C9 1*/3* clearance [2, 7]: ~44%; observed increase in AUC, CYP2C9 1*/3* [2, 7]: 1.74 fold; observed decrease in clearance ([2]; CYP2C9 1*/2* individuals): about 27%; observed decrease in clearance ([2]; CYP2C9 1*/3* individuals): ~40%; Fox ([2]; PBPK input): 0.71; Clrenal [2]: 0.066 L/h; steady-state volume of distribution (Vss) [2]: around 0.1 L/kg; fmCYP2C9 ([2]; contribution to overall metabolic clearance): 0.71; CYP2C9 metabolic contribution ([2]; human, in vivo): at least 71%; absolute bioavailability ([2]; human, in vivo): ~ 95%; eliminated through metabolic oxidation to 4-hydroxy FLU ([2]; human, in vivo): > 71 % of the dose; AUCinf obs ([2]; iv s.d. 50 mg): 35.2 mg·h/L; fmCYP2C9 ([2]; metabolism by polymorphic CYP2C9): ≥ 0.71; dose excreted into urine as acyl glucuronide of (R)-FLU ([2]; oral racemic FLU): 8.4%; dose excreted into urine as acyl glucuronide of (S)-FLU ([2]; oral racemic FLU): 7.3%; AUCinf obs ([2]; po orod s.d. 150 mg): 129.8 mg·h/L; Cmax obs ([2]; po orod s.d. 150 mg): 16.8 mg/L; AUCinf obs [2, 8]: 29.3 mg·h/L; CL/F obs [2, 8]: 1.39 L/h; Cmax obs [2, 8]: 5.54 mg/L; AUCinf obs [2, 9]: 47.6 mg·h/L; CL/F obs [2, 9]: 0.88 L/h; Cmax obs [2, 9]: 6.93 mg/L; AUCinf obs ([2]; po sol s.d. 67.9 mg): 55.1 mg·h/L; Cmax obs ([2]; po sol s.d. 67.9 mg): 10.8 mg/L; AUCinf obs ([2]; po sol s.d. 100 mg): 82.7 mg·h/L; CL/F obs ([2]; po sol s.d. 100 mg): 1.28 L/h; Cmax obs ([2]; po sol s.d. 100 mg): 14.2 mg/L; AUCinf obs ([2]; po tab (Ansaid) s.d. 100 mg): 80.5 mg·h/L; Cmax obs ([2]; po tab (Ansaid) s.d. 100 mg): 12.8 mg/L; AUCinf obs ([2]; po tab (Ansaid) s.d. 200 mg): 161.3 mg·h/L; CL/F obs ([2]; po tab (Ansaid) s.d. 200 mg): 1.32 L/h; Cmax obs ([2]; po tab (Ansaid) s.d. 200 mg): 21.4 mg/L; AUCinf obs ([2]; po tab (Ansaid) s.d. 300 mg): 233.9 mg·h/L; CL/F obs ([2]; po tab (Ansaid) s.d. 300 mg): 1.36 L/h; Cmax obs ([2]; po tab (Ansaid) s.d. 300 mg): 29.5 mg/L; AUCinf obs [2, 10]: 87.8 mg·h/L; CL/F obs [2, 10]: 1.27 L/h; Cmax obs [2, 10]: 13.2 mg/L; AUCinf obs [2, 11]: 82.3 mg·h/L; Cmax obs [2, 11]: 13.3 mg/L; AUCinf obs [2, 12]: 29.4 mg·h/L; CL/F obs [2, 12]: 1.77 L/h; Cmax obs [2, 12]: 5.38 mg/L; AUCinf obs [2, 13]: 30.8^a mg/L·h; CL/F obs [2, 13]: 1.6 ^a L/h; Cmax obs [2, 13]: 6.1 ^a mg/L; AUCinf obs [2, 14]: 40.7 mg·h/L; CL/F obs [2, 14]: 1.30 L/h; Cmax obs [2, 14]: 4.55 mg/L; AUCinf obs [2, 15]: 51.1 mg·h/L; CL/F obs [2, 15]: 1.00 L/h; Cmax obs [2, 15]: 5.42 mg/L; AUCinf obs [2, 16]: 53.7 ^a mg/L·h; CL/F obs [2, 16]: 0.9 ^a L/h; Cmax obs [2, 16]: 8.9 ^a mg/L; AUCinf obs [2, 17]: 85.8 mg·h/L and 119 mg·h/L; CL/F obs [2, 17]: 0.6 L/h and 0.4 L/h; Cmax obs [2, 17]: 8 mg/L and 9.4 mg/L; AUCinf obs ([2]; po tab s.d. 100 mg): 67.7 mg·h/L; CL/F obs ([2]; po tab s.d. 100 mg): 1.52 L/h; Cmax obs ([2]; po tab s.d. 100 mg): 12.9 mg/L; AUCinf obs ([2]; po tab s.d. 150 mg): 124.3 mg·h/L; Cmax obs ([2]; po tab s.d. 150 mg): 15.2 mg/L; fraction absorbed (fa) ([2]; small intestine): greater than 95%; solubility at 24 h ([3]; 37 °C, aqueous buffer, thermodynamic from solid, Acetate buffer (pH = 4.5), pHfinal 4.7, read-out: Solubility, mean (SD)): 101 µg/mL (≈ 414 µM); solubility at 24 h ([3]; 37 °C, aqueous buffer, thermodynamic from solid, Phosphate buffer (pH = 6.5), pHfinal 6.1, read-out: Solubility, mean (SD)): 2020 µg/mL (≈ 8290 µM); solubility at 24 h ([3]; 37 °C, aqueous buffer, thermodynamic from solid, Phosphate buffer (pH = 6.8), pHfinal 6.3, read-out: Solubility, mean (SD)): 3130 µg/mL (≈ 12800 µM); solubility at 24 h ([3]; 37 °C, fassgf or other biorelevant, thermodynamic from solid, Level III FaSSGF (pH = 1.6), pHfinal 1.6, read-out: Solubility, mean (SD)): 18.5 µg/mL (≈ 75.7 µM); solubility at 24 h ([3]; 37 °C, thermodynamic from solid, FaSSGF Level I (pH = 1.6), pHfinal 1.6, read-out: Solubility, mean (SD)): 18.1 µg/mL (≈ 74.1 µM); solubility at 24 h ([3]; 37 °C, thermodynamic from solid, FeSSIF V1 Level I (pH = 5.0), pHfinal 5.1, read-out: Solubility, mean (SD)): 225 µg/mL (≈ 923 µM); solubility at 24 h ([3]; 37 °C, thermodynamic from solid, Level II FaSSIF V1 (pH = 6.5), pHfinal 6.0, read-out: Solubility, mean (SD)): 1950 µg/mL (≈ 8000 µM); solubility at 24 h ([3]; 37 °C, thermodynamic from solid, Level II FaSSIF V3 (pH = 6.7), pHfinal 5.9, read-out: Solubility, mean (SD)): 1590 µg/mL (≈ 6490 µM); solubility at 24 h ([3]; aqueous buffer (FaSSGF Level I), pH 1.6, minimum experimentally measured value, read-out: S0 (intrinsic solubility)): 18 µg/mL (≈ 73.7 µM); logPo:w [4]: 3.99; Km [5]: 50.2 µM; UGT2B7-Vmax [5]: 119.7 pmol/min/mg protein

— PMC7693160 (Pharmaceutics, 2020)
